From PMC6272711, “5-Methoxyquinoline Derivatives as a New Class of EZH2 Inhibitors” (Molecules, 2015) come the findings set out here.

In assay [1] the target is EZH2 (Homo sapiens, UniProt Q15910). Put plainly: AlphaLISA assay for EZH2. The conditions noted are these: enzymatic assay; means of at least three measurements. The format is biochemical. For orientation: Bead proximity is the source of the signal in Alpha formats.
The test system of assay [2] is MDA-MB-231. Put plainly: MTT cell growth inhibition, MDA-MB-231. The format is cell-based. To be noted: Homo sapiens, MDA-MB-231, 96 h, read-out: IC50 MDA-MB-231.
Assay [3] relates to HCT15. In words: MTT cell growth inhibition, HCT15. The format is cell-based, human. To be noted: Homo sapiens, HCT-15, 96 h, read-out: IC50 HCT15, MTT, treatment 96 h; means of at least three measurements.

Structures are written as SMILES.

EZH2, sequence (Q15910 whole entry): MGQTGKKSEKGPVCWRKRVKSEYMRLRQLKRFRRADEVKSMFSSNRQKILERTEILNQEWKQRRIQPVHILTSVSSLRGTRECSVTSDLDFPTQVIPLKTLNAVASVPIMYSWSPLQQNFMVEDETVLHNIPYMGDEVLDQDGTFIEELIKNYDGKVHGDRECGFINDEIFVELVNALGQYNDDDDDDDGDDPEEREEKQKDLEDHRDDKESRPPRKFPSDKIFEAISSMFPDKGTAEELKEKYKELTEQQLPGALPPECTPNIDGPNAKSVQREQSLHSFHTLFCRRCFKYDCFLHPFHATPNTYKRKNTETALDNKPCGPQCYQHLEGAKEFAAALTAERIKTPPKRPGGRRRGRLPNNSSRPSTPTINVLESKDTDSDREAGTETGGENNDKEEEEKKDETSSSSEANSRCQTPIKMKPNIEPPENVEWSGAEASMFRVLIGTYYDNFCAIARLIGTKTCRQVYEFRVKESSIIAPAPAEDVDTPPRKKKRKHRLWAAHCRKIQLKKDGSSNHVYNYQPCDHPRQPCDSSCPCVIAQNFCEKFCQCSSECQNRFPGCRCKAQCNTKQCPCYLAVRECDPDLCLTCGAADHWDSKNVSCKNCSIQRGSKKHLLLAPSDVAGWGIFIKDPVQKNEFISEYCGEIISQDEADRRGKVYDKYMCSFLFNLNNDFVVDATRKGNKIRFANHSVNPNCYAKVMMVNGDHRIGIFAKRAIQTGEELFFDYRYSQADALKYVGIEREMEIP
EZH2, sequence (O75530 whole entry partner): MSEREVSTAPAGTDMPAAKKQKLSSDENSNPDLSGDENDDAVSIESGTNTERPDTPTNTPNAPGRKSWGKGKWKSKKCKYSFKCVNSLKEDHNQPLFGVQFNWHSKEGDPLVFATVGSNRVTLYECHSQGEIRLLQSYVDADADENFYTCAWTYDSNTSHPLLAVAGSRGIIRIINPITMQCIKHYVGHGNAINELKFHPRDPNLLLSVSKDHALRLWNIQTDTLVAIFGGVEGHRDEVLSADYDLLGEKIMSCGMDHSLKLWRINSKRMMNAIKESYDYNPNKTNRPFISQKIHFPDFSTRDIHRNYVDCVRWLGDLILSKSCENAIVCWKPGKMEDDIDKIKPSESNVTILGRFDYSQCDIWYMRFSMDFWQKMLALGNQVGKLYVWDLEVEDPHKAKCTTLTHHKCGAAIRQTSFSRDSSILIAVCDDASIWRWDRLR
EZH2, sequence (Q15022 whole entry partner): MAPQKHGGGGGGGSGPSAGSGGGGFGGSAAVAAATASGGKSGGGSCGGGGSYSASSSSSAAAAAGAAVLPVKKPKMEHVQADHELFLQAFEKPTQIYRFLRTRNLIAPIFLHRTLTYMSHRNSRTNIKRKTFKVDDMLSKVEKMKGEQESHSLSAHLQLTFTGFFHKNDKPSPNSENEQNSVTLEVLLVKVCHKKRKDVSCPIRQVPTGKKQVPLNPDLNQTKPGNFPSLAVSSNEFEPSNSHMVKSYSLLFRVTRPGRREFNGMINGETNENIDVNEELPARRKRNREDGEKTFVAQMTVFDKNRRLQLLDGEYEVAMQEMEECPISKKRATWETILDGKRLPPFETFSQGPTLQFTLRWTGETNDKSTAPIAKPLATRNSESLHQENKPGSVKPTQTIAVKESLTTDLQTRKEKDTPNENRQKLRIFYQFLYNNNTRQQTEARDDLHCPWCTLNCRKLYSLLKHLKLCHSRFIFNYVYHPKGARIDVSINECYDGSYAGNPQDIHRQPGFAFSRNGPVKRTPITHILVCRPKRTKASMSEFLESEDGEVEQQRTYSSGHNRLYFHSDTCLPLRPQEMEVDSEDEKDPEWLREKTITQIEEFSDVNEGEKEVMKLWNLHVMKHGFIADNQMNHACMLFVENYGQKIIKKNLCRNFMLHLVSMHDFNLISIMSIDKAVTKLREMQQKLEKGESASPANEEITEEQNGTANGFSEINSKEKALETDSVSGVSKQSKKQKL

`COc1ccc(Nc2cc(N3CCCN(C)CC3)nc3cccc(OC)c23)cc1` [Compound 5m, 5-Methoxy-N-(4-methoxyphenyl)-2-(4-methyl-1,4-diazepan-1-yl)quinolin-4-amine]: the IC50 (in general, the concentration at which inhibition is half-maximal) in assay [1] is 19.7 ± 2.56 µM; in assay [2], > 20 µM; in assay [3], 18.9 ± 1.97 µM.
On to `COc1cc2nc(N3CCCN(C)CC3)cc(NC3CCN(C)CC3)c2cc1OC` [Compound 9g, 6,7-Dimethoxy-2-(4-methyl-1,4-diazepan-1-yl)-N-(1-methylpiperidin-4-yl)quinolin-4-amine], for which the IC50 in assay [1] was 17.8 ± 2.07 µM; in assay [2], > 20 µM; in assay [3], 15.9 ± 1.85 µM.
On to `COc1cccc2nc(N3CCCN(C)CC3)cc(NC3CCN(Cc4ccccc4)CC3)c12` [Compound 5g, N-(1-Benzylpiperidin-4-yl)-5-methoxy-2-(4-methyl-1,4-diazepan-1-yl)quinolin-4-amine], for which the results for the IC50 in assay [1], in assay [2] and in assay [3] were 6.6 ± 0.49 µM, 4.56 ± 0.24 µM and 3.78 ± 0.07 µM, respectively.
For `COc1cccc2nc(N3CCCN(C)CC3)cc(Nc3ccc(C(C)C)cc3)c12` [Compound 5n, N-(4-Isopropylphenyl)-5-methoxy-2-(4-methyl-1,4-diazepan-1-yl)quinolin-4-amine], the IC50 in assay [1] was 26.4 ± 2.04 µM; in assay [2], 13.2 ± 2.53 µM; in assay [3], 14.6 ± 1.27 µM.
Turning to `COc1cccc2nc(N3CCOCC3)cc(NC3CCN(Cc4ccccc4)CC3)c12` [Compound 5b, N-(1-Benzylpiperidin-4-yl)-5-methoxy-2-morpholinoquinolin-4-amine], the values for the IC50 in assay [1], in assay [2] and in assay [3] were 23 ± 2.06 µM, 14.2 ± 1.97 µM and 15.6 ± 1.27 µM, respectively.
For `COc1cccc2nc(N3CCCN(C)CC3)cc(NCCN3CCN(C)CC3)c12` [Compound 5j, 5-Methoxy-2-(4-methyl-1,4-diazepan-1-yl)-N-(2-(4-methylpiperazin-1-yl)ethyl)quinolin-4-amine], in that order: 4.2 ± 0.2 µM, 12.4 ± 0.95 µM and 18.6 ± 2.2 µM.
For `COc1ccc(Nc2cc(N3CCCN(C)CC3)nc3cccc(OC)c23)c(C)c1` [Compound 5q, 5-Methoxy-N-(4-methoxy-2-methylphenyl)-2-(4-methyl-1,4-diazepan-1-yl)quinolin-4-amine], in that order: 34.8 ± 1.54 µM, 14.5 ± 1.23 µM and 16.9 ± 0.36 µM.
For `COc1cccc2nc(Cl)cc(NC3CCN(Cc4ccccc4)CC3)c12` [Compound 1, N-(1-benzylpiperidin-4-yl)-2-chloro-5-methoxyquinolin-4-amine], in assay [2], the IC50 was > 20 µM.
`COc1ccc2nc(N3CCCN(C)CC3)cc(NC3CCN(C)CC3)c2c1OC` [Compound 9d, 5,6-Dimethoxy-2-(4-methyl-1,4-diazepan-1-yl)-N-(1-methylpiperidin-4-yl)quinolin-4-amine]: the half-maximal inhibitory concentration (IC50) turned out to be 5.6 ± 0.45 µM in assay [1], 12.4 ± 0.95 µM in assay [2] and 8.6 ± 2.2 µM in assay [3].
Regarding `COc1cccc2nc(N3CCN(C)CC3)cc(NC3CCN(Cc4ccccc4)CC3)c12` [Compound 5a, N-(1-Benzylpiperidin-4-yl)-5-methoxy-2-(4-methylpiperazin-1-yl)quinolin-4-amine], the IC50 came to 16.4 ± 1.24 µM in assay [1], 11.9 ± 1.83 µM in assay [2] and 12.3 ± 0.95 µM in assay [3].
The matching figures for `COc1cccc2nc(N3CCCN(C)CC3)cc(Nc3ccc([N+](=O)[O-])cc3)c12` [Compound 5u, 5-Methoxy-2-(4-methyl-1,4-diazepan-1-yl)-N-(4-nitrophenyl)quinolin-4-amine]: 26.2 ± 2.54 µM, 14.9 ± 2.2 µM and 17.8 ± 1.27 µM.
The matching figures for `COc1ccc(OC)c2c(NC3CCN(C)CC3)cc(N3CCCN(C)CC3)nc12` [Compound 9f, 5,8-Dimethoxy-2-(4-methyl-1,4-diazepan-1-yl)-N-(1-methylpiperidin-4-yl)quinolin-4-amine]: 9.2 ± 0.51 µM, 12.4 ± 0.49 µM and 15.5 ± 0.53 µM.
For `COc1cc(OC)c2nc(N3CCCN(C)CC3)cc(NC3CCN(C)CC3)c2c1` [Compound 9h, 6,8-Dimethoxy-2-(4-methyl-1,4-diazepan-1-yl)-N-(1-methylpiperidin-4-yl)quinolin-4-amine], in that order: 14.9 ± 1.71 µM, 13.2 ± 1.64 µM and 19.8 ± 1.27 µM.
`COc1cccc2nc(N3CCCN(C)CC3)cc(NC3CCN(C(C)C)CC3)c12` [Compound 5i, N-(1-Isopropylpiperidin-4-yl)-5-methoxy-2-(4-methyl-1,4-diazepan-1-yl)quinolin-4-amine]: the IC50 in assay [1] is 17.4 ± 1.07 µM; in assay [2], 15.7 ± 1.27 µM; in assay [3], > 20 µM.
The matching figures for `COc1cccc(Nc2cc(N3CCCN(C)CC3)nc3cccc(OC)c23)c1` [Compound 5s, 5-Methoxy-N-(3-methoxyphenyl)-2-(4-methyl-1,4-diazepan-1-yl)quinolin-4-amine]: 16.8 ± 0.94 µM, 16.9 ± 1.06 µM and 19.6 ± 0.56 µM.
With `COc1cccc2nc(N3CCCN(C)CC3)cc(Nc3ccc(C)cc3)c12` [Compound 5r, 5-Methoxy-2-(4-methyl-1,4-diazepan-1-yl)-N-(p-tolyl)quinolin-4-amine], the values for the IC50 in assay [1], in assay [2] and in assay [3] were 39.7 ± 1.26 µM, > 20 µM and 12.9 ± 0.89 µM, respectively.
As to `COc1cccc2nc(Nc3ccc([N+](=O)[O-])cc3)cc(NC3CCN(Cc4ccccc4)CC3)c12` [Compound 5e, N4-(1-Benzylpiperidin-4-yl)-5-methoxy-N2-(4-nitrophenyl)quinoline-2,4-diamine], the IC50 is 29.4 ± 1.01 µM in assay [1], 14.9 ± 2.2 µM in assay [2] and 17.8 ± 1.27 µM in assay [3].
On to `COc1cccc2nc(N3CCCN(C)CC3)cc(NCCC(C)C)c12` [Compound 5h, N-Isopentyl-5-methoxy-2-(4-methyl-1,4-diazepan-1-yl)quinolin-4-amine], for which the half-inhibitory concentration (IC50) in assay [1] worked out at 11.5 ± 1.21 µM; in assay [2], 4.31 ± 0.57 µM; in assay [3], 5.46 ± 0.85 µM.
For `COc1cccc2nc(Nc3ncccn3)cc(NC3CCN(Cc4ccccc4)CC3)c12` [Compound 5d, N4-(1-Benzylpiperidin-4-yl)-5-methoxy-N2-(pyrimidin-2-yl)quinoline-2,4-diamine], the IC50 in assay [1] is 17.5 ± 0.96 µM; in assay [2] it was > 20 µM; in assay [3], > 20 µM.
For the compound `COc1cccc2nc(N3CCCN(C)CC3)cc(Nc3cncnc3)c12` [Compound 5t, 5-Methoxy-2-(4-methyl-1,4-diazepan-1-yl)-N-(pyrimidin-5-yl)quinolin-4-amine], the IC50 in assay [1] was 35.3 ± 1.61 µM; in assay [2] it was > 20 µM; in assay [3], > 20 µM.
As to `COc1ccc2c(NC3CCN(C)CC3)cc(N3CCCN(C)CC3)nc2c1OC` [Compound 9i, 7,8-Dimethoxy-2-(4-methyl-1,4-diazepan-1-yl)-N-(1-methylpiperidin-4-yl)quinolin-4-amine], the 50% inhibitory concentration (IC50) in assay [1] was 13.7 ± 1.32 µM; in assay [2], > 20 µM; in assay [3], > 20 µM.
On to `COc1ccccc1Nc1cc(N2CCCN(C)CC2)nc2cccc(OC)c12` [Compound 5o, 5-Methoxy-N-(2-methoxyphenyl)-2-(4-methyl-1,4-diazepan-1-yl)quinolin-4-amine], for which the IC50 in assay [1] was 17.5 ± 1.13 µM; in assay [2] it was > 20 µM; in assay [3], > 20 µM.
As for `COc1cccc2nc(N3CCCCC3)cc(NC3CCN(Cc4ccccc4)CC3)c12` [Compound 5c, N-(1-Benzylpiperidin-4-yl)-5-methoxy-2-(piperidin-1-yl)quinolin-4-amine], the IC50 in assay [1] was determined as 32 ± 2.78 µM; in assay [2], 5.6 ± 0.14 µM; in assay [3], 7.8 ± 0.46 µM.
As for `COc1cccc2nc(N3CCCN(C)CC3)cc(Nc3ccc(N(C)C)cc3)c12` [Compound 5p, N1-(5-Methoxy-2-(4-methyl-1,4-diazepan-1-yl)quinolin-4-yl)-N4,N4-dimethylbenzene-1,4-diamine], the IC50 worked out at 27.6 ± 0.97 µM in assay [1], 16.2 ± 1.67 µM in assay [2] and 17.4 ± 1.54 µM in assay [3].
The matching figures for `COc1cccc2nc(N3CCCN(C)CC3)cc(Nc3cc(C(F)(F)F)cc(C(F)(F)F)c3)c12` [Compound 5v, N-(3,5-Bis(trifluoromethyl)phenyl)-5-methoxy-2-(4-methyl-1,4-diazepan-1-yl)quinolin-4-amine]: 34.1 ± 2.22 µM, > 20 µM and 10.2 ± 1.24 µM.
Take `COc1cc(OC)c2c(NC3CCN(C)CC3)cc(N3CCCN(C)CC3)nc2c1` [Compound 9e, 5,7-Dimethoxy-2-(4-methyl-1,4-diazepan-1-yl)-N-(1-methylpiperidin-4-yl)quinolin-4-amine]: the IC50 in assay [1] worked out at 6.7 ± 0.36 µM; in assay [2], 12.5 ± 0.62 µM; in assay [3], 10.6 ± 0.83 µM.
For `COc1cccc2nc(N3CCCN(C)CC3)cc(NC3CCOCC3)c12` [Compound 5l, 5-Methoxy-2-(4-methyl-1,4-diazepan-1-yl)-N-(tetrahydro-2H-pyran-4-yl)quinolin-4-amine], in that order: 2.8 ± 0.21 µM, 2.4 ± 0.49 µM and 15.5 ± 0.2 µM.
Take `COc1cccc2nc(Nc3cc(C(F)(F)F)cc(C(F)(F)F)c3)cc(NC3CCN(Cc4ccccc4)CC3)c12` [Compound 5f, N4-(1-Benzylpiperidin-4-yl)-N2-(3,5-bis(trifluoromethyl)phenyl)-5-methoxyquinoline-2,4-diamine]: the IC50 in assay [1] is 21.6 ± 2.35 µM; in assay [2], > 20 µM; in assay [3], 10.2 ± 1.24 µM.
